Data reported in PubChem BioAssay (NCI).
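Following 48 hours of exposure in 96-well plates, responses at five concentrations were used to interpolate endpoints linearly. GI50 marks 50% less growth. TGI marks complete inhibition of growth.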

What was measured:
Experiment in all cases: NCI-60 cell line screen, 48 h
SN12C renal = system: SN12C renal
MOLT-4 leukemia = system: MOLT-4 leukemia
SF-539 CNS = system: SF-539 CNS
SK-MEL-2 melanoma = system: SK-MEL-2 melanoma
HOP-92 NSCLC = system: HOP-92 NSCLC
HCC-2998 colon = system: HCC-2998 colon
CAKI-1 renal = system: CAKI-1 renal
UO-31 renal = system: UO-31 renal
SW-620 colon = system: SW-620 colon
MDA-MB-231 breast = system: MDA-MB-231 breast

## C(CCC[Te][Te]CCCCCCOC1CCCCO1)CCOC1CCCCO1 (centres undefined)
SN12C renal
  TGI: 29.4 µM
MOLT-4 leukemia
  TGI: 46.6 µM
SF-539 CNS
  TGI: 32.1 µM
SK-MEL-2 melanoma
  TGI: 28.3 µM
HOP-92 NSCLC
  TGI: 30.5 µM
HCC-2998 colon
  TGI: 27.9 µM
CAKI-1 renal
  TGI: 82.6 µM
UO-31 renal
  TGI: 77.3 µM
SW-620 colon
  TGI: 45.2 µM

## ClC(Cl)c1nc(-c2cccnc2)n2nc(-c3ccccc3)cc2n1
MOLT-4 leukemia
  GI50: 0.984 µM
  TGI: > 100 µM
HOP-92 NSCLC
  GI50: 2.16 µM
  TGI: 5.29 µM
HCC-2998 colon
  GI50: 0.639 µM
  TGI: 2.15 µM
MDA-MB-231 breast
  GI50: 1.98 µM
  TGI: 5.07 µM
CAKI-1 renal
  GI50: 1.73 µM
  TGI: 5.51 µM
SW-620 colon
  GI50: 0.666 µM
  TGI: 5.3 µM

## COc1cccc(C(=O)N2CCc3ccccc32)c1OC
SN12C renal
  TGI: > 100 µM
MOLT-4 leukemia
  TGI: 78.7 µM
SF-539 CNS
  TGI: > 100 µM
SK-MEL-2 melanoma
  TGI: > 100 µM
HOP-92 NSCLC
  TGI: > 100 µM
HCC-2998 colon
  TGI: > 100 µM
CAKI-1 renal
  TGI: > 100 µM
UO-31 renal
  TGI: > 100 µM
SW-620 colon
  TGI: > 100 µM

## CN(C)N1C(=O)c2ccccc2NC1c1ccccc1 (centres undefined)
SN12C renal
  TGI: > 100 µM
MOLT-4 leukemia
  TGI: > 100 µM
SF-539 CNS
  TGI: > 100 µM
SK-MEL-2 melanoma
  TGI: > 100 µM
HOP-92 NSCLC
  TGI: > 100 µM
HCC-2998 colon
  TGI: > 100 µM
MDA-MB-231 breast
  TGI: > 100 µM
CAKI-1 renal
  TGI: > 100 µM
UO-31 renal
  TGI: > 100 µM
SW-620 colon
  TGI: > 100 µM

## NNc1nc2ccccc2c(=O)n1NC(=O)C(=O)Nc1cccc(C(F)(F)F)c1
SN12C renal
  TGI: > 100 µM
MOLT-4 leukemia
  TGI: > 100 µM
SF-539 CNS
  TGI: > 100 µM
SK-MEL-2 melanoma
  TGI: > 100 µM
HOP-92 NSCLC
  TGI: > 100 µM
HCC-2998 colon
  TGI: > 100 µM
MDA-MB-231 breast
  TGI: > 100 µM
CAKI-1 renal
  TGI: > 100 µM
UO-31 renal
  TGI: > 100 µM
SW-620 colon
  TGI: > 100 µM

## N=C(N=C(N)N)N1CCN(c2ccncc2)CC1
SN12C renal
  GI50: > 1000 µM
  TGI: > 1000 µM
MOLT-4 leukemia
  GI50: > 1000 µM
  TGI: > 1000 µM
SF-539 CNS
  GI50: > 1000 µM
  TGI: > 1000 µM
SK-MEL-2 melanoma
  GI50: > 1000 µM
  TGI: > 1000 µM
HOP-92 NSCLC
  GI50: > 1000 µM
  TGI: > 1000 µM
HCC-2998 colon
  GI50: > 1000 µM
  TGI: > 1000 µM
MDA-MB-231 breast
  GI50: > 1000 µM
  TGI: > 1000 µM
CAKI-1 renal
  GI50: > 1000 µM
  TGI: > 1000 µM
UO-31 renal
  GI50: > 1000 µM
  TGI: > 1000 µM
SW-620 colon
  GI50: > 1000 µM
  TGI: > 1000 µM

## COc1ccc2c(Nc3ccc(NS(C)(=O)=O)cc3)c3ccccc3nc2c1
SN12C renal
  GI50: 0.487 µM
  TGI: 13.2 µM
MOLT-4 leukemia
  GI50: 0.111 µM
  TGI: 22.5 µM
SF-539 CNS
  GI50: 0.525 µM
  TGI: 2.28 µM
SK-MEL-2 melanoma
  GI50: 0.334 µM
  TGI: 2.29 µM
HOP-92 NSCLC
  GI50: 0.136 µM
  TGI: 2.66 µM
HCC-2998 colon
  GI50: 0.732 µM
  TGI: 2.3 µM
MDA-MB-231 breast
  GI50: 1.52 µM
  TGI: 6.65 µM
CAKI-1 renal
  GI50: 0.45 µM
  TGI: 5.64 µM
UO-31 renal
  GI50: 0.809 µM
  TGI: 8.87 µM
SW-620 colon
  GI50: 0.276 µM
  TGI: 3.29 µM

## O=C1C=C(Br)C(=O)C12CCc1ccccc12 (centres undefined)
SN12C renal
  TGI: 35 µM
MOLT-4 leukemia
  TGI: 6.89 µM
SF-539 CNS
  TGI: 35.6 µM
SK-MEL-2 melanoma
  TGI: 54.2 µM
HOP-92 NSCLC
  TGI: 27.3 µM
HCC-2998 colon
  TGI: 40.2 µM
MDA-MB-231 breast
  TGI: 70.2 µM
CAKI-1 renal
  TGI: 16.3 µM
UO-31 renal
  TGI: 33 µM
SW-620 colon
  TGI: 16.2 µM

## CC(=O)OC1CC2C(C)(C)C(=O)C=C[C@]2(C)C2CCC3(C)C(c4ccoc4)C(=O)[C@H]4O[C@]43[C@]12C (some centres undefined)
SN12C renal
  TGI: 66.1 µM
MOLT-4 leukemia
  TGI: 46.6 µM
SF-539 CNS
  TGI: 39.9 µM
SK-MEL-2 melanoma
  TGI: 43.4 µM
HOP-92 NSCLC
  TGI: 34.4 µM
HCC-2998 colon
  TGI: 32.2 µM
CAKI-1 renal
  TGI: 75.1 µM
UO-31 renal
  TGI: 32.7 µM
SW-620 colon
  TGI: 59.2 µM
